The values that follow come from patent US20230398130A1, “METHODS AND COMPOSITIONS FOR DIFFERENTIATING STEM CELLS” (Massachusetts Institute of Technology, priority 2020, published 2023).

Entries after “also recorded” stand apart in the source; their conditions may differ.

The test system of assay [1] is organoid line. Kind of assay: Validation and dose optimization of the FDA library hits: lysozyme secretion normalized to ATP abundance. It is filed as cell-based. The note with it: for lysozyme secretion normalized to ATP: 80 nM, different organoid line; for lysozyme secretion compared with KPT-330: in vitro validation, 80-320 nM. As to the method: Applicants next validated the initial screening results by the lysozyme secretion assays at four doses from 80 nM to 10 μM. To evaluate the cell-line dependent effect, Applicants utilized a different organoid line, derived from a different animal. DAPT-treated samples were prepared as positive controls, the same as in the screen. Applicants measured ATP abundance simultaneously as a surrogate of cell number and used it for normalizing lysozyme values. […] To further optimize the dose of each drug, Applicants treated with the three compounds at narrower dose range (80-320 nM) and KPT-330, previously identified PC inducer, for comparison.

The subject of assay [2] is ENR-cultured 3D-embedded organoid. Kind of assay: 384 well-based 3D-embedded organoid screening (ENR, 6 days, FDA approved drug library, 10 μM): Cch-induced lysozyme secretion. The assay is classed as cell-based, murine. An excerpt:
Leveraging their experience in 2.5D culture organoid screening (Mead, et al., 2020 High-throughput organoid screening enables engineering of intestinal epithelial composition. bioRxiv 2020.04.27.063727; Example 2 and 5), Applicants optimized multiple parameters such as organoid number and density, Matrigel volume, and compound-induced secretion stimulation to detect secreted lysozyme from ENR-cultured 3D-embedded organoid. […] The scheme is shown in FIG. 31; briefly, (1) prepare small organoid fragments by mechanical disruption and culture in ENRCV media for 4 days to grow stem cell-rich organoid, (2) replace media to conventional organoid growth media (ENR) add compounds, and culture for 6 days in total, (3) measure Cch-induced lysozyme secretion and ATP abundance. Based on multiple condition examination results (see FIG. 32 as an example), Applicants concluded that 20 organoids/well and 7 μL Matrigel mixture/well is the reasonable culture condition for 384 well-based screening. Additionally, a Notch signaling inhibitor, DAPT, can be used as a positive control, and stimulating by carbachol helps broaden the window between negative and positive control samples (FIG. 32). Utilizing this newly established platform, Applicants performed 384 well-based high-throughput chemical compound screening, aiming for further identification of PC inducers. […] Applicants prepared duplicates for each sample to increase the reliability and chose a single dose point of drugs (10 μM) to execute the initial screening readily and efficiently while planning to analyze precise dose-responsiveness in the following validation step.
Applicants analyzed all the data by Python 3 as follows. Log 2 transformed lysozyme-derived fluorescent values were calculated; violin plots of negative and positive controls (FIG. 33) and histograms of samples were shown with respect to each assay plate (FIG. 34). […] To evaluate the compound effects, robust Z-scores were calculated based on the negative controls in each plate, and all results were concatenated. […]

Assay [3] concerns Paneth cells. Kind of assay: Immunofluorescent imaging of organoids: LYZ+ cells per organoid area. The assay is classed as cell-based, murine. The conditions noted are these: 160 nM KPT-8602, ENR+CD 3 days. The protocol: Immunofluorescent imaging. For immunofluorescence staining of organoids, intestinal organoids in Matrigel were fixed with 4% paraformaldehyde, then transferred to centrifuge tube. After washing with PBS, the isolated organoids were permeabilized with 1% Triton X followed by incubation with blocking buffer (1% BSA+3% Donkey Serum+0.2% Triton X in PBS) at RT. The organoids were then stained with primary antibodies and fluorescent dye-labeled secondary antibodies as well as with DAPI. Slides were covered with […]® Mounting Media (VECTOR). The following primary and secondary antibodies were used for the staining: rabbit anti-Lysozyme (1:1000, Thermo Fisher Scientific), rat anti-E-cadherin (1:1000, Thermo Fisher Scientific), Alexa Fluor 488 and 568 secondary antibodies (1:1000, Invitrogen). Images were acquired with a confocal laser scanning microscope (Nikon Eclipse 90i). For the analysis of Lysozyme+ cells per organoid area, the number of counted Lysozyme+ cells were normalized to measured organoid surface area. Image J was used for the data analysis.

Assay [4] concerns intestinal organoids. Kind of assay: Population RNA-sequencing of organoids. It is filed as cell-based, murine. The conditions noted are these: ENR+CV, ENR+CD or ENR organoids. As to the method:
Population RNA-sequencing. Population RNA-seq was performed using a derivative of the Smart-Seq2 protocol for single cells. In brief, organoid media was aspirated and RLT+BME (Qiagen) was added to each well, and plate shaken for 30 minutes to fully lyse. Lysate was aliquoted into 4 identical fractions and stored at −80° C. until reverse transcription. RNA lysate was thawed and cleaned with a 2.2×SPRI ratio using Agencourt RNAClean XP beads (Beckman Coulter, A63987). RNA-seq was performed on a bulk population of […] using Smart-Seq2 chemistry, starting with a 2.2×SPRI ratio cleanup. After oligo-dT priming, Maxima H Minus Reverse Transcriptase (ThermoFisher EP0753) was used to synthesize cDNA with an elongation step at 52° C. before PCR amplification (15 cycles for tissue, 18 cycles for sorted basal cells) using KAPA HiFi PCR Mastermix (Kapa Biosystems KK2602). Sequencing libraries were prepared using the Nextera XT DNA tagmentation kit (Illumina FC-131-1096) with 250 pg input for each sample. Libraries were pooled post-Nextera and cleaned using Agencourt AMPure SPRI beads with successive 0.7× and 0.8× ratio SPRIs and sequenced with an Illumina 75 Cycle NextSeq500/550v2 kit (Illumina FC-404-2005) with loading density at 2.2 pM, with paired end 35 cycle read structure. Samples were sequenced at an average read depth of 8.44 million reads per sample and a total of 96 samples.
Organoid samples were aligned to the Mm10 genome and transcriptome using STAR and RSEM. […] For module scoring with the in vivo Paneth and enteroendocrine cell-defining genes, Applicants used previously published gene sets and computed persample module scores through the Seurat package.

Assay [5] concerns Paneth cells. Kind of assay: Flow cytometry of 3D-cultured intestinal organoids (ENR+CD, 6 days): Paneth cell fraction (lysozyme-positive, CD24-mid). It is filed as cell-based, murine. The note with it: 160 nM KPT-8602, ENR+CD 6 days. As to the method:
Flow cytometry analysis (3D culture). ISC-enriched organoids cultured in 3D Matrigel with ENRCV media were passaged to 24-well plate in 3D Matrigel with ENRCV. At day zero, media were replaced to ENRCD with or without indicated compounds, and media were replaced every other day. […] Flow cytometry was performed using an LSR Fortessa (BD; Koch Institute Flow Cytometry Core at MIT). The data were analyzed using FlowJo v10 software.
Single live cells were selected by several gating strategies and Paneth cells were identified as lysozyme-high, CD24-mid, side scatter-high (SSC-high) (FIG. 27E). […] To evaluate whether the culture media supplements C and D may alter the effects of the 6 hits, Applicants also performed lysozyme assay in the canonical ENR culture condition in 3-D (because Paneth cells exist in an immature state within ENR, Applicants were unable to robustly quantify Paneth cell number via flow cytometry).
(§1) Flow cytometry. ISC-enriched organoids in 3D Matrigel culture were passaged to a 48-well plate and induced differentiation for 6 days by ENR+CD media containing DMSO or each drug indicated in the figures. DMSO- or drug-containing media were changed every other day. […] After vigorous pipetting and incubation at 37° C. for 15 min, the cell solution was diluted twice with basal media and centrifuged at 300 rcf for 3 min. […] The cell solution was centrifuged again at 300 rcf for 3 min at 4° C. to pellet the cells. […] Cells were centrifuged again for 3 min at 300 rcf and blocked with staining buffer (FACS buffer containing 0.5% Tween20 (Sigma, P2287)) for 15 min at RT in the dark. […] Flow cytometry was performed using an LSR Fortessa (BD; Koch Institute Flow Cytometry Core at MIT). Flow cytometry data were analyzed using FlowJo X v10.6.1 software.
Live Paneth cells were identified as LYZ-high, CD24-mid, side scatter-high (SSC-high) (FIG. 50F).
as §1, with “organoids in 3-D Matrigel culture” for “organoids in 3D Matrigel culture”, “to a 24- or 48-well plate” for “to a 48-well plate”

Assay [6] relates to lysozyme (LYZ). Kind of assay: Western blotting of lysozyme in 3D-cultured intestinal organoids. The assay is classed as cell-based, murine. The note with it: organoids cultured 6 days in ENR+CV, ENR+CD or ENR. An excerpt:
Western blotting. ISC-enriched organoids cultured in 3D Matrigel with ENRCV media were passaged to 24-well plate in 3D Matrigel with ENRCV. At day zero, media were replaced to ENR or ENRCD with or without indicated compounds, and media were replaced every other day. At day six, cells were harvested from Matrigel by mechanical disruption and suspended in basal media. Cell pellets were lysed with Pierce© IP lysis buffer (ThermoFisher, 87787) containing Halt™ Protease Inhibitor Cocktail, EDTA-Free (ThermoFisher, 87785) after 3-minute centrifuge at 300×g at 4° C. Cell extracts were resolved by NuPAGE© SDS-PAGE Gel system (ThermoFisher) and electroblotted onto polyvinylidene difluoride membranes using Criterion™ Blotter (Biorad). The membranes were blocked with 2% Blotting-Grade Blocker (Biorad, 1706404) in TBS-T (50 mM Tris-HCl, 150 mM NaCl, and 0.1% Tween 20, pH 8.0) and then probed with appropriate antibodies. Detection was performed using ECL Select™ Western Blotting Detection Reagent (Amersham, 45-000-999) and ImageQuant LAS4000 (GE Healthcare).
Western blotting. Organoid-containing gel was homogenized in basal medium and centrifuged at 300 rcf for 3 min. Organoid pellet was lysed with ice-cold Pierce IP Lysis Buffer (Thermo Fisher Scientific, #87787) containing Halt Protease Inhibitor Cocktail, EDTA-Free (Thermo Fisher Scientific, #87785) and incubated on ice for 20 min. The lysate was centrifuged at 17,000 rcf for 10 min, and the supernatant was combined with NuPAGE LDS Sample Buffer (Thermo Fisher Scientific, NP0007). Protein concentration was determined by Pierce 660 nm Protein Assay (Thermo Fisher Scientific, #22660) and normalized to the lowest concentration among each sample set. […] Chemiluminescent signals were detected by LAS4000 (GE Healthcare) using Amersham ECL Select Western Blotting Detection Reagent (GE Healthcare, #45-000-999), and total protein signals were obtained by Odyssey Imaging System (LI-COR Biosciences) using REVERT Total Protein Stain Kit (LI-COR Biosciences, #926-11010).
(In general: A western blot detects proteins with antibodies after separation by electrophoresis.)

As for `C=C1/C(=C\C=C2/CCC[C@]3(C)[C@@H]([C@H](C)/C=C/[C@@H](O)C4CC4)CC[C@@H]23)C[C@@H](O)C[C@@H]1O` [Calcipotriene], in assay [1], the “lysozyme secretion normalized to ATP” value is on record as “effects were validated” and the “lysozyme secretion compared with KPT-330” value is reported as “outperformed KPT-330”. For the same molecule, the “effect on Cch-induced lysozyme secretion (hit identification)” value (“effect on Cch-induced lysozyme secretion” below) in assay [2] was “identified as Paneth cell activators”.

In the case of `Nc1ncn([C@H]2C[C@H](O)[C@@H](CO)O2)c(=O)n1` [Decitabine, 5-aza-2′-deoxycytidine], in assay [1], the “lysozyme secretion normalized to ATP” value is given as “effects were validated” and the “lysozyme secretion compared with KPT-330” value was “outperformed KPT-330”. Moreover, the “effect on Cch-induced lysozyme secretion” value in assay [2] is “identified as Paneth cell activators”.

In the case of `NC(=O)/C(=C/n1cnc(-c2cc(C(F)(F)F)cc(C(F)(F)F)c2)n1)c1cncnc1` [KPT-8602], the “proportion of Paneth cells (IF imaging)” value in assay [3] is “increasing the proportion of Paneth cells”. Further, in assay [4], the “secretory cell identity (Paneth, goblet, EEC) from bulk transcripts” value is “increase secretory cells (Paneth, goblet, and EEC)”. Moreover, the “Paneth cell proportion in organoids” value in assay [5] is “statistically significant increases in Paneth cell representation; also recorded: increased the proportion of PC; also recorded: increasing the proportion of Paneth cells”. Besides, the “LYZ abundance per unit protein (Western blotting)” value in assay [6] is reported as “appreciably increase LYZ abundance”.

Turning to `Nc1nc2nc[nH]c2c(=S)[nH]1` [Thioguanine], in assay [1], the “lysozyme secretion normalized to ATP” value is on record as “effects were validated” and the “lysozyme secretion compared with KPT-330” value is “outperformed KPT-330”. Also, in assay [2], the “effect on Cch-induced lysozyme secretion” value is reported as “identified as Paneth cell activators”.
